Reference: US8129380B2, “Phthalazinone derivatives” (AstraZeneca AB, priority 2008, dated 2012)

Tested on: HeLa cells
Experiment: Potentiation Factor (PF50): MMS growth inhibition, SRB assay
Assay type: cell-based
Conditions: MMS 0-10 μg/ml, ratio IC50 control / IC50 + inhibitor; for PF50 (30 nM): PARP inhibitor at 30 nM; for PF50 (200 nM): PARP inhibitor at 200 nM
Description: The Potentiation Factor (PF50) for compounds is calculated as a ratio of the IC50 of control cell growth divided by the IC50 of cell growth+PARP inhibitor. Growth inhibition curves for both control and compound treated cells are in the presence of the alkylating agent methyl methanesulfonate (MMS). The test compounds were used at a fixed concentration of 0.2 micromolar. The concentrations of MMS were over a range from 0 to 10 μg/ml.
2,000 HeLa cells were seeded into each well of a flat-bottomed 96-well microtiter plate in a volume of 100 μl and incubated for 6 hours at 37° C. Cells were either replaced with media alone or with media containing PARP inhibitor at a final concentration of 30 nM or 200 nM. […] Cells treated with PARP inhibitor alone were used to assess the growth inhibition by the PARP inhibitor.
Cells were left for a further 16 hours before replacing the media and allowing the cells to grow for a further 72 hours at 37° C. The media was then removed and the cells fixed with 100 μl of ice cold 10% (w/v) trichloroacetic acid. The plates were incubated at 4° C. for 20 minutes and then washed four times with water. Each well of cells was then stained with 100 μl of 0.4% (w/v) SRB in 1% acetic acid for 20 minutes before washing four times with 1% acetic acid. Plates were then dried for 2 hours at room temperature. The dye from the stained cells was solubilized by the addition of 100 μl of 10 mM Tris Base into each well.

Compound	PF50 (30 nM)	PF50 (200 nM)
CC(C)OC1CCN(C(=O)c2cc(Cc3n[nH]c(=O)c4ccccc34)ccn2)CC1 [Compound 25, 4-[[2-(4-propan-2-yloxypiperidine-1-carbonyl)pyridin-4-yl]methyl]-2H-phthalazin-1-one]	2.1	–
O=C(c1cc(Cc2n[nH]c(=O)c3ccccc23)ccc1F)N1CCC(OC2CCC2)CC1 [Compound 15, 4-(3-(4-cyclobutoxypiperidine-1-carbonyl)-4-fluorobenzyl)phthalazin-1(2H)-one]	4.4	–
COC1CCN(C(=O)c2cc(Cc3n[nH]c(=O)c4c[nH]c(C)c34)ccc2F)CC1 [Compound 63, 4-(4-fluoro-3-(4-methoxypiperidine-1-carbonyl)benzyl)-5-methyl-2,6-dihydro-1H-pyrrolo[3,4-d]pyridazin-1-one]	1.0	–
O=C(c1cc(Cc2n[nH]c(=O)c3ccccc23)ccc1F)N1CCC(Oc2ccncn2)CC1 [Compound 26a, 4-(4-fluoro-3-(4-(pyrimidin-4-yloxy)piperidine-1-carbonyl)benzyl)phthalazin-1(2H)-one]	3.7	–
O=C(COC1CCN(C(=O)c2cc(Cc3n[nH]c(=O)c4ccccc34)ccc2F)CC1)N1CCCCC1 [Compound 113, 4-(4-fluoro-3-(4-(2-oxo-2-(piperidin-1-yl)ethoxy)piperidine-1-carbonyl)benzyl)phthalazin-1 (2H)-one]	5.8	23.1
COC1CCN(C(=O)c2cc(Cc3n[nH]c(=O)c4cc(Cl)ccc34)ccc2F)CC1 [Compound 69, 7-chloro-4-(4-fluoro-3-(4-methoxypiperidine-1-carbonyl)benzyl)phthalazin-1(2H)-one]	1.7	–
O=C(c1cc(Cc2n[nH]c(=O)c3ccccc23)ccc1F)N1CCC(Oc2cnccn2)CC1 [Compound 26d]	4.0	–
CCOC1CCN(C(=O)c2cc(F)cc(Cc3n[nH]c(=O)c4cccc(Cl)c34)c2)CC1 [Compound 129a, 5-chloro-4-(3-(4-ethoxypiperidine-1-carbonyl)-5-fluorobenzyl)phthalazin-1(2H)-one]	1.0	–
CC(C)(C)OC1CCN(C(=O)c2cc(Cc3n[nH]c(=O)c4ccccc34)ccn2)CC1 [Compound 73, 4-((2-(4-tert-butoxypiperidine-1-carbonyl)pyridin-4-yl)methyl)phthalazin-1(2H)-one]	6.2	27.8
N#Cc1ccnc(OC2CCN(C(=O)c3cc(Cc4n[nH]c(=O)c5ccccc45)ccc3F)CC2)c1 [Compound 26f]	4.4	–
CC1(O)CCN(C(=O)c2cc(Cc3n[nH]c(=O)c4ccccc34)ccc2F)CC1 [Compound 74, 4-(4-fluoro-3-(4-hydroxy-4-methylpiperidine-1-carbonyl)benzyl)phthalazin-1(2H)-one]	1.5	–
Cc1cccc(OC2CCN(C(=O)c3cc(Cc4n[nH]c(=O)c5ccccc45)ccc3F)CC2)n1 [Compound 39, 4-(4-fluoro-3-(4-(6-methylpyridin-2-yloxy)piperidine-1-carbonyl)benzyl)phthalazin-1(2H)-one]	1.4	–
O=C(c1cc(Cc2n[nH]c(=O)c3ccccc23)ccn1)N1CCC(Oc2ccncc2)CC1 [Compound 6e]	1.5	1.9
O=C(c1cc(Cc2n[nH]c(=O)c3ccccc23)ccn1)N1CCC(Oc2ccc(F)cc2)CC1 [Compound 6b]	1.5	3.5
N#Cc1nccnc1OC1CCN(C(=O)c2cc(Cc3n[nH]c(=O)c4ccccc34)ccc2F)CC1 [Compound 26l]	1.2	–
CC(C)(C)OC1CCN(C(=O)c2cccc(Cc3n[nH]c(=O)c4ccccc34)c2)CC1 [Compound 71, 4-[[3-[4-[(2-methylpropan-2-yl)oxy]piperidine-1-carbonyl]phenyl]methyl]-2H-phthalazin-1-one]	4.0	8.9
O=C(c1cc(Cc2n[nH]c(=O)c3ccccc23)ccn1)N1CCC(OC2CCCC2)CC1 [Compound 40, 4-((2-(4-(cyclopentyloxy)piperidine-1-carbonyl)pyridin-4-yl)methyl)phthalazin-1(2H)-one]	2.2	19.8
COC1CCN(C(=O)c2cc(Cc3n[nH]c(=O)c4cccc(N)c34)ccc2F)CC1 [Compound 46, 5-amino-4-(4-fluoro-3-(4-methoxypiperidine-1-carbonyl)benzyl)phthalazin-1(2H)-one]	20.1	3.24
CCOC1CCN(C(=O)c2cccc(Cc3n[nH]c(=O)c4ccccc34)c2)CC1 [Compound 47a, 4-(3-(4-ethoxypiperidine-1-carbonyl)benzyl)phthalazin-1(2H)-one]	1.8	–

Compound	PF50 (30 nM)	PF50 (200 nM)
O=C(c1cc(Cc2n[nH]c(=O)c3ccccc23)ccc1F)N1CCC(OCC2CC2)CC1 [Compound 2g]	4.3	–
COCCOC1CCN(C(=O)c2cc(Cc3n[nH]c(=O)c4ccccc34)ccc2F)CC1 [Compound 7, 4-(4-fluoro-3-(4-(2-methoxyethoxy)piperidine-1-carbonyl)benzyl)phthalazin-1(2H)-one]	4.0	–
CCCOC1CCN(C(=O)c2cc(Cc3n[nH]c(=O)c4ccccc34)ccc2F)CC1 [Compound 8c, 4-[[4-fluoro-3-(4-propoxypiperidine-1-carbonyl)phenyl]methyl]-2H-phthalazin-1-one]	12.2	–
O=C(COC1CCN(C(=O)c2cc(Cc3n[nH]c(=O)c4ccccc34)ccc2F)CC1)N1CCCC1 [Compound 107, 4-(4-fluoro-3-(4-(2-oxo-2-(pyrrolidin-1-yl)ethoxy)piperidine-1-carbonyl)benzyl)phthalazin-1(2H)-one]	1.7	–
COC1CCN(C(=O)c2cccc(Cc3n[nH]c(=O)c4cccc(Cl)c34)c2)CC1 [Compound 119a, 5-chloro-4-(3-(4-methoxypiperidine-1-carbonyl)benzyl)phthalazin-1(2H)-one]	1.0	–
COC1CCN(C(=O)c2cc(Cc3n[nH]c(=O)c4c(C)n(C)c(C)c34)ccc2F)CC1 [Compound 60, 4-(4-fluoro-3-(4-methoxypiperidine-1-carbonyl)benzyl)-5,6,7-trimethyl-2,6-dihydro-1H-pyrrolo[3,4-d]pyridazin-1-one]	1.0	–
O=C(c1cc(Cc2n[nH]c(=O)c3ccccc23)ccn1)N1CCC(Oc2ccccc2)CC1 [Compound 6d]	1.4	3.5
CC(C)OC1CCN(C(=O)c2cc(Cc3n[nH]c(=O)c4ccccc34)ccc2F)CC1 [Compound 11, 4-(4-fluoro-3-(4-isopropoxypiperidine-1-carbonyl)benzyl)phthalazin-1(2H)-one]	33.6	–
O=C(c1cc(Cc2n[nH]c(=O)c3ccccc23)ccc1F)N1CCC(OCCN2CCOCC2)CC1 [Compound 80, 4-(4-fluoro-3-(4-(2-morpholinoethoxy)piperidine-1-carbonyl)benzyl)phthalazin-1(2H)-one]	1.5	–
COc1ccc(OC2CCN(C(=O)c3cc(Cc4n[nH]c(=O)c5ccccc45)ccc3F)CC2)cc1 [Compound 8b, 4-[[4-fluoro-3-[4-(4-methoxyphenoxy)piperidine-1-carbonyl]phenyl]methyl]-2H-phthalazin-1-one]	23.6	–
O=C(c1cc(Cc2n[nH]c(=O)c3ccccc23)ccc1F)N1CCC(Oc2ccncc2)CC1 [Compound 2j]	3.0	–
O=C(c1cccc(Cc2n[nH]c(=O)c3c(F)ccc(F)c23)c1)N1CCC(OCC2CC2)CC1 [Compound 4a]	1.2	–
NC(=O)c1ccnc(OC2CCN(C(=O)c3cc(Cc4n[nH]c(=O)c5ccccc45)ccc3F)CC2)c1 [Compound 26g]	1.6	–
O=C(O)COC1CCN(C(=O)c2cc(Cc3n[nH]c(=O)c4ccccc34)ccc2F)CC1 [Compound 90, 2-(1-(2-fluoro-5-((4-oxo-3,4-dihydrophthalazin-1-yl)methyl)benzoyl)piperidin-4-yloxy)acetic acid]	1.1	–
O=C(COC1CCN(C(=O)c2cc(Cc3n[nH]c(=O)c4ccccc34)ccc2F)CC1)N1CC(F)(F)C1 [Compound 89, 4-(3-(4-(2-(3,3-difluoroazetidin-1-yl)-2-oxoethoxy)piperidine-1-carbonyl)-4-fluorobenzyl)phthalazin-1(2H)-one]	1.9	–
O=C(c1cccc(Cc2n[nH]c(=O)c3ccccc23)c1)N1CCC(OC2CCCC2)CC1 [Compound 37, 4-(3-(4-(cyclopentyloxy)piperidine-1-carbonyl)benzyl)phthalazin-1(2H)-one]	1.7	10.6
CCOC1CCN(C(=O)c2cc(Cc3n[nH]c(=O)c4cccc(OC)c34)ccc2F)CC1 [Compound 126b, 4-(3-(4-ethoxypiperidine-1-carbonyl)-4-fluorobenzyl)-5-methoxyphthalazin-1(2H)-one]	7.4	–
COc1cccc(OC2CCN(C(=O)c3cc(Cc4n[nH]c(=O)c5ccccc45)ccc3F)CC2)c1 [Compound 8a, 4-[[4-fluoro-3-[4-(3-methoxyphenoxy)piperidine-1-carbonyl]phenyl]methyl]-2H-phthalazin-1-one]	1.6	–
